Experimental findings from the METLIN SMRT retention time set (Domingo-Almenara et al. 2019) are described below.

This data set in a line: gradient 5% acetonitrile 3 min, to 50% in 2 min, to 85% in 15 min, held 3 min, 100 µL/min. Particulars: column: Zorbax Extend-C18 2.1 x 50 mm; eluents: water / acetonitrile, 0.1% formic acid. In a few lines: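 The mobile phases were water and acetonitrile, each with 0.1% formic acid, pumped at 100 μL/min through a Zorbax Extend-C18 column (2.1 × 50 mm, 1.8 μm). Pure standards were injected as mixtures of ~100 molecules and detected by a quadrupole time-of-flight mass spectrometer in positive and negative ionization mode. Retention time came from computationally picked adduct peaks, each inspected by hand.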
In the case of `O=C1COc2cc(S(=O)(=O)N3CCCC3C(=O)NC3CCCCCC3)c(Cl)cc2N1` (stereo not drawn), the RP-LC retention time worked out at 819 s.

For the compound `O=C(Cc1cccc(F)c1)Nc1ccc2c(c1)CCC(=O)N2`, the RP-LC retention time came out at 650 s.

The compound `CCCCNC(=O)C1CCCN(C(=O)Nc2ccc(NC(=O)Nc3ccccc3)cc2)C1` (stereo not drawn) returned an RP-LC retention time of 812 s.

Take `CCC1=C(c2ccc(C)cc2)S(=O)(=O)N=C1N1CCC(C(=O)NC(C)Cc2ccco2)CC1` (stereo not drawn): the RP-LC retention time worked out at 894 s.

The compound `CC[C@@H]1C(=O)N(C)c2cnc(Nc3ccc(C(=O)NC4CCN(C)CC4)cc3OC)nc2N1C1CCCC1` displayed an RP-LC retention time of 624 s.

As to `O=C(CCc1nc(CSc2nnc(-c3ccccc3)o2)no1)Nc1ccc(F)c(Cl)c1`, the RP-LC retention time was found to be 973 s.

`Cn1nc(-c2nnc(-c3ccccc3F)o2)c2c1CCN(S(=O)(=O)c1ccc(C#N)cc1)C2` registered an RP-LC retention time of 894 s.

As for `Cc1cc(C)n2c(Nc3c(C)cccc3C)c(-c3ccc(O)cc3)nc2n1`, the RP-LC retention time came out at 646 s.

`O=C(NCc1ccc(Cl)cc1)NCC(O)Cc1ccccc1` (stereo not drawn) yielded an RP-LC retention time of 721 s.

`CC(=O)Nc1nnc(SCC(=O)Nc2ccc(OC(F)(F)F)cc2)s1` returned an RP-LC retention time of 733 s.

As for `Cc1cc(C)cc(NC(=O)Cn2cnc3nc(N4CCC(C(=O)NC5CC5)CC4)sc3c2=O)c1`, the RP-LC retention time was found to be 713 s.

With `CNC(=O)NCCC1CCN(S(=O)(=O)c2ccc(C)cc2)CC1`, the RP-LC retention time turned out to be 708 s.

The compound `CC12CCC3C(CC=C4CC(O)CCC43C)C1C/C(=C\N1CCCC1)C2=O` (stereo not drawn) showed an RP-LC retention time of 943 s.

Take `CCCN1C(=O)C(CC(=O)NC2CCCC2)Sc2ncccc21` (stereo not drawn): the RP-LC retention time is 741 s.

As to `O=C(NCCCc1ccccc1)C1CCCN(c2nccnc2Sc2ccccc2)C1` (stereo not drawn), the RP-LC retention time came to 1090 s.

As for `O=C(CSc1ncnc2ccccc12)NCCc1ccccc1`, the RP-LC retention time worked out at 706 s.

`O=C(NCc1cccc(C(F)(F)F)c1)C1CCN(c2ccc(SCc3ccccc3)nn2)CC1` showed an RP-LC retention time of 871 s.

As to `CC(C)(C)c1ccc(-c2cc(C(=O)O)c3ccc(Br)cc3n2)cc1`, the RP-LC retention time stood at 1400 s.

`Cc1cccc2c3c(ccc12)C1=C(C(=O)C3=O)[C@@H](C)CO1` returned an RP-LC retention time of 1200 s.

For `Cc1nn(C)c(C)c1CCCN(C)C(=O)c1cccc(N2CCNC(c3ccccc3)C2)n1` (stereo not drawn), the RP-LC retention time was 558 s.

Compound `O=C(N[C@H]1C[C@@H]2C[C@H]1N(C(=O)Cc1c(F)cccc1Cl)C2)c1ccccc1` had an RP-LC retention time of 827 s.

In turn, `O=C(NCCc1ccccc1)N1CCCC1c1nc(-c2cccc(Cl)c2)no1` (stereo not drawn) gave an RP-LC retention time of 1050 s.

`CCOc1ccc2nc(C(=O)NC(C)(C)C)cn2n1`: the RP-LC retention time came out at 802 s.

`Cc1cc(C)cc(NS(=O)(=O)c2cc(-c3nc(C(C)C)cs3)cs2)c1` came in with an RP-LC retention time of 1210 s.

`Cc1cc(C)n2nc(SCC(=O)NCc3ccc(F)cc3)nc2n1`: the RP-LC retention time stood at 671 s.

For the compound `COC1=CC(=O)OC(/C=C/c2ccccc2)C1` (stereo not drawn), the RP-LC retention time turned out to be 883 s.

The compound `O=C(Nc1ccc2c(c1)OCCO2)C1CN(S(=O)(=O)C2CC2)CC12CCCCC2` (stereo not drawn) returned an RP-LC retention time of 881 s.

With `CCOc1ccc(CNC(=O)COc2nc(C)nc3oc(C)c(C)c23)cc1`, the RP-LC retention time was found to be 892 s.

`O=C(Cn1nc2n(c1=O)CCCC2)NCc1ccc(F)cc1`: the RP-LC retention time came to 642 s.

`CN(C)C(=O)c1csc(S(=O)(=O)N2CCC(C(=O)N3CCN(c4ccccc4)CC3)CC2)c1` showed an RP-LC retention time of 768 s.

`Cc1cc(NC(=O)c2cc(Cl)ccc2Cl)n(C(C)C)n1` yielded an RP-LC retention time of 775 s.

`CCc1nc2ncc(-c3ccnc(N4CCN(Cc5ccccc5)CC4)n3)c(C)n2n1`: the RP-LC retention time was 607 s.

In turn, `CCNC(=O)C1CCN(S(=O)(=O)c2cc(Cl)ccc2OC)CC1` had an RP-LC retention time of 726 s.

On to `CC(NC(=O)Cn1cc(C(=O)C(=O)N2CCCC2)c2ccccc21)c1ccc2c(c1)OCCCO2` (stereo not drawn), for which the RP-LC retention time turned out to be 815 s.

The compound `O=C(Cc1nnc2cc(-c3nc(C4CC4)no3)ccn12)NCC1CC1` showed an RP-LC retention time of 820 s.

The compound `CC(NC(=O)Cn1ncc2c(N3CCN(c4ccccn4)CC3)ncnc21)c1ccccc1` (stereo not drawn) displayed an RP-LC retention time of 616 s.

`CC(C)c1ccc(NC(=O)C2CCCN(c3ccc(=O)n(-c4cccc(Cl)c4)n3)C2)cc1` (stereo not drawn) gave an RP-LC retention time of 1120 s.

`O=C(CCc1nnc2c3cc(-c4ccc(F)cc4)nn3ccn12)NCCc1cccs1` returned an RP-LC retention time of 786 s.

As to `O=C(c1ccc([N+](=O)[O-])cc1)N(C(=O)N1CCCCC1)c1cccc(Cl)c1`, the RP-LC retention time was determined as 953 s.

For `Cc1cc(C)cc(NC(=O)Cn2c(=O)n(-c3ccc(F)cc3)c(=O)c3c2cc(C)n3C)c1`, the RP-LC retention time worked out at 879 s.

Take `Cc1nc2cc(-c3noc(-c4ccc(F)cc4)n3)ccc2n(C(C)C)c1=O`: the RP-LC retention time was determined as 1200 s.

`CCc1ccc(NC(=O)c2cccn2Cc2noc(C)n2)cc1` registered an RP-LC retention time of 910 s.

The compound `COCCc1noc(-c2cnc3nc(C)ccc3c2NCc2cccc(Cl)c2)n1` displayed an RP-LC retention time of 711 s.

For the compound `Cc1cc(NC(=O)C2CCCN(c3nnc4ccccn34)C2)ccc1F` (stereo not drawn), the RP-LC retention time worked out at 717 s.

Regarding `O=C(Cc1nnc2c(-c3nc(C4CC4)no3)cccn12)N1CCSCC1`, the RP-LC retention time is 653 s.

As to `CC(C)Cc1ccc(S(=O)(=O)N2C[C@@H](F)C[C@H]2C(=O)N2CCCCC2)cc1`, the RP-LC retention time is 983 s.

On to `Cc1ccccc1NC(=O)N1CCC2(CC1)NC(=O)c1ccc(F)cc1N2C`, for which the RP-LC retention time turned out to be 747 s.

As for `CCc1ccc(N2C(=O)Nc3ccccc3C2(O)C(=O)NCCN(CC)CC)cc1` (stereo not drawn), the RP-LC retention time stood at 575 s.

Consider `Cc1nc2cc(-c3noc(COc4ccccc4)n3)ccc2o1`, for which the RP-LC retention time amounted to 1030 s.

Compound `O=c1c2ccccc2c(-c2nc(-c3ccncc3)no2)cn1-c1ccc(F)cc1` registered an RP-LC retention time of 1080 s.

`O=C(NCc1cc(F)cc(F)c1)C1CCCN(c2cnc3nccnc3c2)C1` (stereo not drawn) registered an RP-LC retention time of 707 s.

As for `Cc1cccc(N2C(=O)CN(CC(C)C)[C@H]3CS(=O)(=O)C[C@H]32)c1`, the RP-LC retention time is 836 s.

`Cc1cc(F)ccc1NC(=O)C1CN(S(=O)(=O)C2CC2)CC12CCCCC2` (stereo not drawn) gave an RP-LC retention time of 964 s.

In turn, `O=C(Cn1cnc(-c2noc(-c3ccncc3)n2)c1)NCc1ccc(F)cc1` registered an RP-LC retention time of 654 s.

In turn, `COc1ccc(NC(=O)C2CCN(S(=O)(=O)c3c(C)nn(-c4ccccc4)c3C)CC2)cc1` displayed an RP-LC retention time of 896 s.

`NNC(=O)CNc1cccc(Br)c1` yielded an RP-LC retention time of 673 s.

For the compound `Cc1ccccc1-c1noc(-c2nn(-c3ccc(Cl)cc3)ccc2=O)n1`, the RP-LC retention time was 1010 s.

`CCCCN1C(=O)C(C)(C(=O)Nc2ccc(F)cc2)Oc2cccnc21` (stereo not drawn) gave an RP-LC retention time of 1030 s.

In turn, `O=C(NCc1cc(F)cc(F)c1)c1ccc(NC(=O)C2CCC2)cc1N1CCOCC1` gave an RP-LC retention time of 871 s.

Turning to `O=S(=O)(Nc1cc(-c2ccoc2)no1)c1ccc(F)cc1F`, the RP-LC retention time was determined as 806 s.

Compound `COc1ccc(S(=O)Cc2ccc(C(=O)NCCCN3CCc4ccccc4C3)o2)cc1` (stereo not drawn) had an RP-LC retention time of 619 s.

With `O=C(CSc1nnc(-c2cccnc2)o1)c1cccc([N+](=O)[O-])c1`, the RP-LC retention time was determined as 724 s.

Compound `Cc1nc(-c2ccccn2)cc2nn(CC(=O)NCC3CCCO3)c(=O)n12` (stereo not drawn) displayed an RP-LC retention time of 604 s.

In turn, `COc1cccc(OC)c1CN1C[C@@H](CO)[C@H](c2ccncc2)C1` displayed an RP-LC retention time of 500 s.

Compound `O=C(NCc1ccco1)c1c(O)c2cccnc2n(-c2ccc(F)cc2)c1=O` showed an RP-LC retention time of 1280 s.

Compound `CCOc1ccc(NC(=O)Cc2nnc3ccc(C(=O)Nc4ccccc4)cn23)cc1` returned an RP-LC retention time of 798 s.

`CC(C)CN1CCN(S(=O)(=O)c2ccc(-c3nnc(C4CC4)o3)o2)CC1` registered an RP-LC retention time of 637 s.

In the case of `CCOc1ccc(NC(=O)COc2cc(C(=O)OC)nc3ccc(OC)cc23)cc1`, the RP-LC retention time amounted to 817 s.

`Cc1cc(C)n(-c2ccc(C(=O)NCc3cc(F)cc(F)c3)cn2)n1` came in with an RP-LC retention time of 943 s.

`CCN1CCN(C(=O)C2Cc3cc(S(=O)(=O)N4CCOCC4)ccc3N2C(C)=O)CC1` (stereo not drawn) displayed an RP-LC retention time of 578 s.

Take `CN(C)C(=O)c1ccc2c(c1)N(CC(=O)NC1CCCCC1)C(=O)C1CCCCN21` (stereo not drawn): the RP-LC retention time was determined as 743 s.

The compound `Cc1cnn(Cc2nc(-c3ccc(NC(=O)CC4CCCC4)cc3)oc2C)c1` came in with an RP-LC retention time of 930 s.

Compound `CC(C)CCn1nc2c(S(=O)(=O)N3CCc4ccccc4C3)cccn2c1=O` had an RP-LC retention time of 1010 s.

`O=C(CC1CCCCC1)Nc1ccc(-c2nc(-c3ccccc3)co2)cc1` yielded an RP-LC retention time of 1270 s.

Turning to `COc1ccc(C2Cn3nnc(-c4nc(-c5ccsc5)no4)c3CO2)cc1` (stereo not drawn), the RP-LC retention time came to 1070 s.

Consider `CC1CCN(C(=O)Cn2nc3nc(Nc4ccc(F)cc4)ccn3c2=O)CC1`, for which the RP-LC retention time stood at 754 s.

Compound `FC(F)(F)c1cc(-c2cccs2)n(-c2nc(-c3ccccc3)cs2)n1` displayed an RP-LC retention time of 1450 s.

Regarding `Cc1cc(C(=O)Nc2ccc3nc(N4CCN(C)CC4)sc3c2)on1`, the RP-LC retention time stood at 544 s.
